Data reported in patent US10610515B2, “Composition including indoprofen and use thereof” (Samsung Electronics Co., Ltd., priority 2015, dated 2020).

How the values were obtained:
mouse = conditions: cited from earlier work
C2C12 myoblasts [1] = assay: Differentiation of indoprofen-treated myoblasts (MHC antibody fluorescence staining, DAPI); assay type: cell-based; conditions: 10 μM or 100 μM, differentiation 3 days, vs DMSO control (FIG. 2)
Experimental: C2C12 myoblasts were treated with 10 μM or 100 μM indoprofen and allowed to differentiate for 3 days. A control group was treated with DMSO alone. Fluorescence staining of C2C12 myotubes was performed using MHC antibody. The number of nuclei within one myotube was counted by DAPI staining. C2C12 cells were differentiated in DMED supplemented with 2% horse serum for 72 hours. The cells were washed with 1×PBS, and then fixed in 4% paraformaldehyde at room temperature for 15 minutes, followed by washing with 1×PBS three times. The cells were reacted with a permeabilizing buffer supplemented with 0.2% Triton-X for 10 minutes, and then washed with 1×PBS three times, followed by blocking using 5% fetal bovine serum at room temperature for 1 hour. A primary antibody, anti-MHC, was diluted with 5% goat serum at a ratio of 1:500 and allowed to react at 4° C. for 12 hours, followed by washing with 1×PBS three times. A secondary antibody, anti-mouse IgG-HRP 594 (Invitrogen) was diluted with 5% goat serum at a ratio of 1:500 and allowed to react at 4° C. for 1 hour, followed by washing with 1×PBS three times. DAPI is diluted with 1×PBS at a ratio of 1:10000 and allowed to react for 1 minute, followed by washing with 1×PBS and fluorescence microscopy.

C57BL/6 female mice [2] = assay: Immunohistochemistry of 2a/2b type muscle fiber in extensor digitorum longus muscles of indoprofen-treated mice; assay type: in vivo, mouse; conditions: oral, 2 weeks
Experimental: 10 week-old C57BL/6 female mice were bred at a temperature of 22±2° C., humidity of 55±5%, and a light-dark cycle of 12:12 hours. Mice were orally administered 1.5 mg/kg of indoprofen in 100 μl of PBS twice a day. A control group was orally administered with 100 μl of PBS twice a day. The mice were allowed free access to drinking water. Skeletal muscles were separated from the mice fed with indoprofen for 2 weeks, and subjected to immunoblot analysis. To examine distribution of 2a type muscle fiber and 2b type muscle fiber, extensor digitorum longus muscles of mice administered with indoprofen for 2 weeks were subjected to immunohistochemistry. 2a type muscle fiber is an oxidative muscle fiber type, and there are two types: aerobic, that is, oxygen-dependent energy source and anaerobic, that is, oxygen-independent energy source. 2b type muscle fiber is a glycolytic muscle fiber type, and includes only anaerobic energy source. Frozen sections stored in a deep freezer of −80° C. were washed with 1×PBS twice, and fixed with 4% paraformaldehyde at room temperature for 15 minutes, and then washed with 1×PBS twice. The tissue and a permeabilization buffer (0.2% Triton-X/PBS) were reacted at room temperature for 30 minutes, and washed with 1×PBS twice. […] After sealing, a fluorescence microscope (Nikon, body: Ti-u, camera: DS-RI1, program: NIS-elements BR 3.1) was used for analysis.

C57BL/6 female mice [3] = assay: Observation of lower limb muscles and heart of mice administered with indoprofen; assay type: in vivo, mouse; conditions: 1.5 mg/kg orally twice a day
Experimental: (§1) 10 week-old C57BL/6 female mice were bred at a temperature of 22±2° C., humidity of 55±5%, and a light-dark cycle of 12:12 hours. Mice were orally administered 1.5 mg/kg of indoprofen in 100 μl of PBS twice a day. A control group was orally administered with 100 μl of PBS twice a day. The mice were allowed free access to drinking water. Skeletal muscles were separated from the mice fed with indoprofen for 2 weeks, and subjected to immunoblot analysis. To evaluate functional consequence of PGC-1α increased by indoprofen treatment of skeletal muscle, lower limb muscles and organs of mice fed with indoprofen for 2 weeks were separated and analyzed.

C57BL/6 female mice [4] = assay: SDH and NADPH staining of extensor digitorum longus muscle of indoprofen-administered mice; assay type: in vivo, mouse; conditions: oral, 2 weeks, 10 week-old mice
Experimental: 10 week-old C57BL/6 female mice were bred at a temperature of 22±2° C., humidity of 55±5%, and a light-dark cycle of 12:12 hours. Mice were orally administered 1.5 mg/kg of indoprofen in 100 μl of PBS twice a day. A control group was orally administered with 100 μl of PBS twice a day. The mice were allowed free access to drinking water. Skeletal muscles were separated from the mice fed with indoprofen for 2 weeks, and subjected to immunoblot analysis. Staining of succinic dehydrogenase (SDH) and NADPH in the extensor digitorum longus muscle of a mouse administered with indoprofen for 2 weeks was performed. This staining method is a method of analyzing mitochondrial activity by measuring activities of SDH and NADPH which are enzymes involved in the electron transport chain of mitochondria. Staining degree of SDH and NADPH represents a content of oxidative muscle fiber. Immediately after separation, extensor digitorum longus muscles were fixed in OCT compound and frozen using liquid nitrogen, and then sectioned to a thickness of 7 μm with a cryo-cut freezing microtome. After SDH staining, the frozen tissue sections were reacted in 0.2 M phosphate buffer (pH 7.4) containing SDH at 37° C. for 10 minutes, washed with distilled water, and then sealed, followed by observation. […]

C2C12 myoblasts [5] = assay: Immunoblot of PGC-1α, differentiation markers and mitochondrial protein in indoprofen-treated myoblasts; assay type: cell-based
Experimental: The effect of indoprofen on the differentiation of C2C12 myoblasts into muscle cells was analyzed. Dulbecco's Modified Eagle Medium (DMEM) supplemented with 15% fetal bovine serum was used as a growth medium for the culture of C2C12 myoblasts, and DMEM supplemented with 2% horse serum was used as a differentiation medium for differentiation into muscle cells. To induce differentiation of C2C12 myoblasts into muscle cells, 10 μM or 100 μM indoprofen dissolved in DMSO was added to the experimental groups, and DMSO alone was added to the control group. The cells were cultured for 48 hours to induce differentiation, and then a RIPA buffer (50 mM Tris-HCl, pH 7.5, 150 mM NaCl, 1% Triton X100, 0.1% SDS, 2 mM EDTA, 0.5% sodium deoxycholate, Proteinase Inhibitor) was added to the harvested cells to allow lysis for 30 minutes, followed by centrifugation at 13,000 rpm for 30 minutes. The amount of protein in the cell lysis sample was quantified and an equal amount of protein was subjected to 7% or 15% SDS-PAGE. The protein was transferred onto a PVDF membrane, and then incubated in a blocking buffer containing 5% skim milk for 1 hour. Primary antibodies specific to individual proteins, diluted in 5% BSA, are reacted with the membrane at 4° C. for 12 hours, and then the membrane was washed with a wash buffer for 5 minutes three times. Secondary antibodies were diluted with the blocking buffer and allowed to react with the membrane at room temperature for 1 hour. Thereafter, the membrane was washed with the wash buffer for 5 minutes three times, and then exposed to X-ray film using an ECL reagent (Roche) to confirm protein expression levels.

25-month-old female mice [6] = assay: Weighing lower limb muscles of old mice administered with indoprofen; assay type: in vivo, mouse; conditions: old (25-month-old) mice, fed 4 weeks (FIG. 4C)
Text: To analyze changes in the muscle weight of old mouse by administration of indoprofen, lower limb muscles were separated from 25-month-old female mice (weighing 30 g) fed with indoprofen for 4 weeks.

25-month-old female mice [7] = assay: SDH and NADPH staining of extensor digitorum longus muscle of indoprofen-administered old mice; assay type: in vivo, mouse; conditions: old (25-month-old) mice, oral in corn oil, 4 weeks
Experimental: Immediately after separation, extensor digitorum longus muscles were fixed in OCT compound and frozen using liquid nitrogen, and then sectioned to a thickness of 7 μm with a cryo-cut freezing microtome. After SDH staining, the frozen tissue sections were reacted in 0.2 M phosphate buffer (pH 7.4) containing SDH at 37° C. for 10 minutes, washed with distilled water, and then sealed, followed by observation. For NADPH staining, the frozen tissue sections were reacted in 3.5 mM phosphate buffer (pH 7.4) containing 0.9 mM NADH, and 1.5 mM nitro blue tetrazolium at 37° C. for 30 minutes, washed with distilled water, and then sealed, followed by observation.
25-month-old female mice (weighing 30 g) were orally administered with indoprofen mixed with corn oil as an experimental group or corn oil only as a control group for 4 weeks. […] Staining of SDH and NADPH in extensor digitorum longus muscles of the old mice orally administered with indoprofen for 4 weeks was performed in the same manner as in 4 of Example 3.

C57BL/6 female mice [8] = assay: Immunoblotting of tibialis anterior muscles of mice administered with indoprofen; assay type: in vivo, mouse; conditions: 1.5 mg/kg orally twice a day, 2 weeks, 10 week-old mice, vs PBS control (FIG. 3A)
Experimental: as §1, with “analysis.” for “analysis. To evaluate functional consequence of PGC-1α increased by indoprofen treatment of skeletal muscle, lower limb muscles and organs of mice fed with indoprofen for 2 weeks were separated and analyzed.”

human PGC-1α promoter = assay: PGC-1α promoter luciferase reporter screening in C2C12-PGC-1α reporter cell line; assay type: cell-based, mouse; conditions: 10 μM, 48 hours, C2C12-PGC-1α reporter cells, vs DMSO control
Experimental: To screen a compound activating PGC-1α gene expression in C2C12 myoblast cells, a PGC-1α reporter-expressing C2C12 cell line (hereinafter, referred to as ‘PGC-1α reporter cell line’ or ‘C2C12-PGC-1α cell line) was established. A vector expressing luciferase and dscGFP (destabilized Green Fluorescent Protein) under a human PGC-1α promoter having a length of 1 kb was prepared, and this vector was inserted into lentivirus to transfect C2C12 cells. To select a cell line that genetically stably expressed the vector, fluorescence emitted from green fluorescent protein (GFP) included in the vector was monitored. 5 μg/ml of puromycin, a selection marker for the vector, was added to a cell culture medium, and a cell line expressing PGC-1α reporter was selected. […] The expression level is measured by luminescence after addition of a luciferase substrate, thereby determining activation or inhibition of PGC-1α transcription by the compound.
The C2C12-PGC-1α reporter cell line prepared in Section 1 was used to screen a PGC-1α expression regulator from 2320 compounds provided by Korea Chemical Bank. […] 48 hours later, luminescence by luciferase was measured. […] Then, luminescence is measured. The measured values were normalized to each well and plate, and a value measured in a well treated with a solvent of the compound, DMSO, is used as a control group to express the value as a relative ratio.

[9] = 10 μM or 100 μM, 48 hours differentiation, Western blot, vs DMSO control (FIG. 1)

CC(=O)Oc1ccccc1C(=O)O [aspirin]
ID50 (mouse; for reference): 250 mg/kg

CC(C(=O)O)c1ccc(N2Cc3ccccc3C2=O)cc1 (stereo not shown) [indoprofen, 2-[4-(1-oxo-1,3-dihydro-2H-isoindol-2-yl)phenyl]propionic acid]
myotube formation and fusion of myoblasts (C2C12 myoblasts [1]): increased
percentage of the nuclei labeled with MHC antibody (C2C12 myoblasts [1]): significantly increased
number of oxidative 2a type muscle fiber in extensor digitorum longus muscle (C57BL/6 female mice [2]; anti-Myh2a antibody, vs non-treated control (FIG. 3C)): increased
number of glycolytic 2b type muscle fiber in extensor digitorum longus muscle (C57BL/6 female mice [2]; anti-Myh2b antibody, vs non-treated control (FIG. 3D)): decreased
heart size (C57BL/6 female mice [3]; 2 weeks (FIG. 3B (C))): no change
appearance of quadriceps muscle and gastrocnemius muscle (white vs red muscle) (C57BL/6 female mice [3]; 2 weeks, vs control group (FIG. 3B)): converted to red muscles
percentage of muscle fiber having increased SDH activity in extensor digitorum longus muscle (C57BL/6 female mice [4]; vs control group (FIG. 3E)): increased
percentage of muscle fiber having increased NADPH activity in extensor digitorum longus muscle (C57BL/6 female mice [4]; vs control group (FIG. 3F)): increased
expression of PGC-1α (C2C12 myoblasts [5]; [9]): greatly increased
expression of mitochondrial protein cytochrome C (C2C12 myoblasts [5]; [9]): greatly increased
expression of muscle differentiation marker MHC (C2C12 myoblasts [5]; [9]): greatly increased
expression of muscle differentiation marker myogenin (C2C12 myoblasts [5]; [9]): greatly increased
expression of myoglobin (C2C12 myoblasts [5]; [9]): greatly increased
concentration of optimal activity (C2C12 myoblasts [5]; C2C12 myoblasts, protein expression (FIG. 1)): 100 µM
weight of lower limb muscle (Sol, Gas, EDL, TA) (25-month-old female mice [6]): increases
percentage of muscle fiber having increased SDH activity in extensor digitorum longus muscle (25-month-old female mice [7]; vs corn oil control (FIG. 4A)): increased
percentage of muscle fiber having increased NADPH activity in extensor digitorum longus muscle (25-month-old female mice [7]; vs corn oil control (FIG. 4B)): increased
lethal dose (LD)-50 for 50% mouse mortality (mouse; mouse): 700 mg per mouse body weight (kg)
expression of PGC-1α in tibialis anterior muscle (C57BL/6 female mice [8]): increased
expression of myoglobin in tibialis anterior muscle (C57BL/6 female mice [8]): increased
PGC-1α promoter activity (luciferase luminescence, relative ratio to DMSO control) (human PGC-1α promoter): greatly increased
